Experimental data taken from patent US20220062299A1, “USE OF GLUCOCORTICOID STEROIDS IN PREVENTING AND TREATING CONDITIONS OF MUSCLE WASTING, AGING AND METABOLIC DISORDER” (NORTHWESTERN UNIVERSITY, priority 2018, published 2022).

Tested on: BCKDHA and mTOR pathway members in mdx muscle
Assay: Protein analysis of BCKDHA and mTOR pathway members in mdx muscle
Assay type: in vivo, mouse
Conditions: weekly prednisone
Method: Animal handling and steroid regimens. Mice were housed in a pathogen-free dedicated vivarium in accordance with Institutional Animal Care and Use Committee (IACUC) guidelines. Euthanasia was performed through carbon dioxide inhalation followed by cervical dislocation and heart removal. All methods using living animals in this study were performed in ethical accordance with the American Veterinary Medical Association (AVMA) and under protocols fully approved by both the Institutional Animal Care and Use Committee (IACUC) at Northwestern University Feinberg School of Medicine (protocol number ISO00000761). Consistent with the ethical approvals, all efforts were made to minimize suffering. Mice were fed ad libitum with Mouse Breeder Sterilizable Diet (#7904; Harlan Teklad, Indianapolis, Ind.) and maintained on a 12-hour light/dark cycle. mdx mice from the DBA/2J background were obtained from the Jackson Laboratory (Bar Harbor, Me.; stock #013141) and interbred. Male mice were used for reported experiments. Age at start was approximately 6 months for short-term experiments, approximately 6 weeks for long-term experiments. Dysferlin-null (Dysf-null) mice from the 129T2/SvEmsJ background were previously characterized (Demonbreun et al., 2011; Demonbreun et al., 2014). Age at start was approximately 9 months for long-term experiments. For experiments with Dysf-null and wildtype mice, both females and males (approximately 1:1 ratio) were randomized in treatment groups. […] Dosing was based on weekly weight measurements (1 mg/kg body weight, (Sali et al., 2012)) in 100 μl total PBS volume per dose. Mice were injected daily via intraperitoneal injection at 7 AM. On injection days, stock solutions stored at −20° C. were diluted into sterile Eppendorf tubes containing sterile phosphate buffered saline (PBS) (#14190; Thermo Fisher, Waltham, Mass.). Puromycin (cat #A1113803, Thermo Scientific, Waltham, Mass.) was administered i.p. as 0.040 μmol/body g, and tissues were snap-frozen 30 minutes after injection. Sterile BD Micro-Fine IV Insulin Syringes (#14-829-1A; Fisher Scientific, Waltham, Mass.) were used to inject the intraperitoneal cavity of non-sedated animals. All animal analyses both during treatment and at endpoint were conducted blinded to treatment groups.
Protein analysis. Protein lysates from approximately 50 mg muscle tissue were obtained with homogenization at the TissueLyser II (cat #85300; Qiagen, Hilden, Germany) for two rounds of 2 minutes each with 2 minutes pause in between, using sample plates chilled at −20° C. o/n and one stainless 5 mm bead per sample (cat #69989; Qiagen, Hilden, Germany). […]

[1] = mdx muscle, 12-week-long treatment

## C[C@]12C=CC(=O)C=C1CC[C@@H]1[C@@H]2C(=O)C[C@@]2(C)[C@H]1CC[C@]2(O)C(=O)CO [prednisone, Prednisone]
[1]
  levels of mTOR-bound RagC and phosphorylation of S6K and 4EBP1: increased
  protein translation and muscle mass (puromycin incorporation and myofiber size): increased
Quadriceps muscle of mdx mice
  phosphorylation of BCKDHA: reduced
  total levels of branched chain keto acid dehydrogenase (BCKDHA): increased
